From the NIST ThermoML archive (doi:10.1021/je800896m)
Several values for one entry are separate records, joined by “and”; a condition that tells them apart may be missing. Equal values may be shown once. Numbers after ± are expanded uncertainties.

Details: Liquid, Closed cell (Static) method

| SMILES | vapor or sublimation pressure (318.34 K) [kPa] | vapor or sublimation pressure (346.96 K) [kPa] | vapor or sublimation pressure (318.35 K) | vapor or sublimation pressure (346.14 K) [kPa] | vapor or sublimation pressure (347.06 K) [kPa] | vapor or sublimation pressure (346.97 K) | vapor or sublimation pressure (347.07 K) [kPa] |
| --- | --- | --- | --- | --- | --- | --- | --- |
| CC(C)C [2-methylpropane] | 608.3 ± 2.1 | 1177.5 ± 3.7 |  |  |  |  |  |
| C=C(C)C [2-methylpropene] |  |  | 542.1 ± 1.9 kPa | 1054.9 ± 3.4 |  |  |  |
| C/C=C/C [(E)-2-butene] | 423.5 ± 1.6 |  |  |  | 868.5 ± 2.8 |  |  |
| CCCC [butane] |  |  | 437.5 ± 1.6 kPa |  |  | 881.7 ± 2.8 kPa |  |
| C1CCSC1 [tetrahydrothiophene] | 7.3 ± 0.8 |  | 6.9 ± 0.8 kPa and 6.7 ± 0.8 kPa | 21.4 ± 0.8 |  | 22.2 ± 0.8 kPa and 22.5 ± 0.8 kPa | 22.2 ± 0.8 |
